Measurements from patent publication US10005756B2, “Pyrrolidinone derivatives as MetAP-2 inhibitors” (Merck Patent GmbH, priority 2014, dated 2018).

These compounds were tested on human umbilical vein endothelial cells (HUVEC) (assay: HUVEC proliferation quantified by BrdU incorporation). Conditions: HUVEC, read-out: IC50 HUVEC.
Assay type: cell-based
Method: Determination of the Proliferation Inhibition by Inhibitors of Methionine Aminopeptidase 2 in the BrdU Proliferation Test (Cellular Assay)
After detachment of the cells by means of trypsin/EDTA, the number of living cells is determined, and the cells are sown in a density of 1000 cells per cavity in a total volume of 175 μl (cavities are coated in advance either with supplemented culture medium for 1-2 hours at 37° C. or with 1.5% gelatine for 0.5-2 hours at 37° C.). After cultivation for 24 hours, the test substances are added in various concentrations (for example final concentrations 30 μM to 0.03 nM in 10-fold dilution steps) and a volume of 25 μl. The DMSO concentration is kept constant at 0.3%. […] To this end, the cells are treated with a fixative for 30 min at room temperature and subsequently incubated with a peroxidase-labelled anti-BrdU antibody (diluted 1:100 in antibody dilution buffer) for 60 min at room temperature. […] The colour development is stopped after 15 min by addition of 25 μl of a 1M sulfuric acid solution. […] The controls used are cavities containing DMSO-treated cells (100% control) or empty cavities (blank value).
HUVEC Proliferation Quantified by BrdU Incorporation
HUVEC Means Human Umbilical Vein Endothelial Cells
HUVEC proliferation is measured after a 5 day incubation period using incorporation of BrdU as a measure of cell cycle activity. Cells are incubated in the presence or absence of test substances. During the last 18 to 24 hours of the incubation period BrdU is added to the medium. BrdU is incorporated into the DNA as the cells progress through S-phase (DNA synthesis) of the cell cycle. The cells are fixed and the amount of BrdU incorporated can be quantified using a commercial ELISA for detection of BrdU.
HUVEC are routinely cultured in EGM MV medium and used between passages 3 and 8.
All substances are run in triplicate.
Reference compounds are run in every assay.
Data is analyzed using the Assay Explorer program. Briefly, the blank is subtracted from all values, the triplicates are averaged and normalized to the untreated. EC50 is determined from a 4-parameter general sigmoidal curve (Hill fit y=(s0−slnf)/(1+(x/AC50)^nHill)+slnf) in Assay Explorer, Symyx). The processed data (EC50 or % Effect if no EC50 if reached, Efficacy) is uploaded directly from Assay Explorer to the MSRDB.

| SMILES | IC50 [nM] |
| --- | --- |
| O=C(NCc1cc(F)cc(Cl)c1)C1(O)CCN(c2ccc3c(c2)CS(=O)(=O)N3)C1=O (stereo not drawn) [Compound A42] | 1300 |
| O=C(NCc1cc(F)cc(Cl)c1)[C@@]1(O)CCN(c2cncnc2)C1=O [Compound A26] | 11000 |
| C[S@](=N)(=O)c1cccc(N2CC[C@](O)(C(=O)NCc3cc(F)cc(Cl)c3)C2=O)c1 [Compound A81] | 540 |
